The target in one assay is T1, JAK3 (Homo sapiens, UniProt P52333).
T1 construct: endogenous in cells; host or cells: mixed Molt4/Ramos lysate (1:2)
T1 sequence (P52333 1-1124): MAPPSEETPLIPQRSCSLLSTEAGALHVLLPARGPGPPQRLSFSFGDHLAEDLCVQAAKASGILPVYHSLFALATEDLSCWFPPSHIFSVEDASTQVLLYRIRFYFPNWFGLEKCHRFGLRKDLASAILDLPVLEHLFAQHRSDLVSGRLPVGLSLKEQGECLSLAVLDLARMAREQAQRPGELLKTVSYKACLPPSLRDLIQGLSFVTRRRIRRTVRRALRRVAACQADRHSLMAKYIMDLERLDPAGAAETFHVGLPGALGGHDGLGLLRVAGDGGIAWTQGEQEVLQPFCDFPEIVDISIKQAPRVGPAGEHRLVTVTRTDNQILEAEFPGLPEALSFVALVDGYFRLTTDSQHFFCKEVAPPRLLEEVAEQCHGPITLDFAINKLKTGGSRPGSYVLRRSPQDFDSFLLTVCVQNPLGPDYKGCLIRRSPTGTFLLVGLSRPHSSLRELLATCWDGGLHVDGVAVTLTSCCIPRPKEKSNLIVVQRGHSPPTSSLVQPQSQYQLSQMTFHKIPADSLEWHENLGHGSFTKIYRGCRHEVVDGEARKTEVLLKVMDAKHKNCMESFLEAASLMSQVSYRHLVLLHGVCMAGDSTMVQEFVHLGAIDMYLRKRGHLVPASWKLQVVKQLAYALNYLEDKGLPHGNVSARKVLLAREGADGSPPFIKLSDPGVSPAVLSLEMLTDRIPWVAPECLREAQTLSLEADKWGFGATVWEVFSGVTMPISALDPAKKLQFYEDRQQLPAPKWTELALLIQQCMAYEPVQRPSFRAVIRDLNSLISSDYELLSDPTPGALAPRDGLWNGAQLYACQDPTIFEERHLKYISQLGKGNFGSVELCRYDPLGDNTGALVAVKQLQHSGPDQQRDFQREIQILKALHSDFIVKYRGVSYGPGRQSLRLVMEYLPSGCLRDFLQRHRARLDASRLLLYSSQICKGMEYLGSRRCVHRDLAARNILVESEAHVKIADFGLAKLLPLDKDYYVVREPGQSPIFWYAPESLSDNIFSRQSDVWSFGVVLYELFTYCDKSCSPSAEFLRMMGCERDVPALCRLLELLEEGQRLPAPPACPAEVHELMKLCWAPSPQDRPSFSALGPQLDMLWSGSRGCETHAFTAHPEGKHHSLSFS
Description: Kinobeads assay, JAK3. The settings on record: mixed Molt4/Ramos lysate, read-out: Inhibition values (IC50) JAK3. It is filed as binding. In outline:
(§1)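 IC50 values come from dose-response curves of JAK2/JAK3 captured on immobilized aminopyrido-pyrimidine beads, quantified by antibody dot blot with infrared read-out. Compounds (1:3 series, 9 steps, from 5 mM DMSO stock) competed for 3 h in the cold with mixed Molt4/Ramos lysate (1:2, 10 mg/mL protein).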

The next assay deals with T2, JAK2 (Homo sapiens, UniProt O60674).
T2 construct: endogenous in cells; host or cells: mixed Molt4/Ramos lysate (1:2)
Description: Kinobeads assay, JAK2. The conditions noted are these: mixed Molt4/Ramos lysate, read-out: Inhibition values (IC50) JAK2. It is filed as binding. A digest of the protocol: as §1

From US9040545B2, “Heterocyclyl pyrazolopyrimidine analogues as selective JAK inhibitors” (Cellzome Limited, priority 2010, dated 2015) come the findings set out here.

T2 sequence (O60674 whole entry): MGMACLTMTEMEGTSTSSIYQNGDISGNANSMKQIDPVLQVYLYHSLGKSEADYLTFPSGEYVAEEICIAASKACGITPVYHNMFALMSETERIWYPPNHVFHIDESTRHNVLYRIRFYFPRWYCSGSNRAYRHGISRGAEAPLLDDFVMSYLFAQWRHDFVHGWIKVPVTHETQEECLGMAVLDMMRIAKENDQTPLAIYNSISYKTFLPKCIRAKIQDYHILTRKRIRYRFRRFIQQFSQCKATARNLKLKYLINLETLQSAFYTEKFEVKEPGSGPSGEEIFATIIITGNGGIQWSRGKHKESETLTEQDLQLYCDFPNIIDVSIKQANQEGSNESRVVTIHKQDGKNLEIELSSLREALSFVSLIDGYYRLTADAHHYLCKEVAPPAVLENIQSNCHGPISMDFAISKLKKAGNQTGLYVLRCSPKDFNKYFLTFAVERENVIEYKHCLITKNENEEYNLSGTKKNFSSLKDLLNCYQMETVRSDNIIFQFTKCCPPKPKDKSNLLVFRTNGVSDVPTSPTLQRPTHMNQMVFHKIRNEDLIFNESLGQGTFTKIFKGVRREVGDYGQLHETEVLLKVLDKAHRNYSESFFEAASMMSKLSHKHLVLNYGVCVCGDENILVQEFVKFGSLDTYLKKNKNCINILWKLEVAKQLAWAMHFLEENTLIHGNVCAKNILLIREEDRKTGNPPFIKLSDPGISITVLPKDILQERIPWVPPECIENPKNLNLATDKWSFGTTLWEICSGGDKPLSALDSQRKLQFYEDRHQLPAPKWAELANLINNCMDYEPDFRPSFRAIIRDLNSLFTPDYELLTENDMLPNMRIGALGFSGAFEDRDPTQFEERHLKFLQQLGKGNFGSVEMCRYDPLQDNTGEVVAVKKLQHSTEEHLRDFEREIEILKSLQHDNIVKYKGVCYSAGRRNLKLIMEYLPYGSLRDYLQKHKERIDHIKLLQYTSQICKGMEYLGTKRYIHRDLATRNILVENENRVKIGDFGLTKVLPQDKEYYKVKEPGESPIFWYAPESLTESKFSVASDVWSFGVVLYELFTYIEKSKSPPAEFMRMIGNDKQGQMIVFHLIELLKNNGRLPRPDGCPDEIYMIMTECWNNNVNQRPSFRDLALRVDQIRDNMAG

One may read the IC50 as the concentration that inhibits the measured activity by half. For the molecule `Cn1cc(Nc2ncc3cnn(Cc4cccc(C(=O)N5CCOCC5)c4F)c3n2)cn1` [Example 87, (2-Fluoro-3-((6-((1-methyl-1H-pyrazol-4-yl)amino)-1H-pyrazolo[3,4-d]pyrimidin-1-yl)methyl)phenyl)(morpholino)methanone], the IC50 at JAK3 was less than 100 nM; at JAK2, 1000 to 10000 nM.

In the case of `c1cc(Cn2ncc3cnc(Nc4cnn(CC5CCCNC5)c4)nc32)cc(N2CCOCC2)c1` (stereo not drawn) [Example 48, 1-(3-Morpholinobenzyl)-N-(1-(piperidin-3-ylmethyl)-1H-pyrazol-4-yl)-1H-pyrazolo[3,4-d]pyrimidin-6-amine], the IC50 is less than 100 nM on JAK3 and 1000 to 10000 nM at JAK2.

Consider `O=C1COCCN1c1cc(F)c(F)c(Cn2ncc3cnc(Nc4cnn(CCO)c4)nc32)c1` [Example 59, 4-(3,4-Difluoro-5-((6-((1-(2-hydroxyethyl)-1H-pyrazol-4-yl)amino)-1H-pyrazolo[3,4-d]pyrimidin-1-yl)methyl)phenyl)morpholin-3-one], for which the IC50 is less than 100 nM at JAK3 and not below 10000 nM at JAK2.
